According to patent US20060079512A1, “Dibenzodiazepinone analogues, processes for their production and their use as pharmaceuticals” (Ecopia BioSciences, Inc., priority 2003, published 2006):

What was measured:
Format in all cases: cell-based
[1] = tested on: HT-29 (colorectal carcinoma); test: In vitro cytotoxic activity (GI50), method (a), propidium iodide; conditions: read-out: HT-29 (GI50 μM)
Description: (§1) Compounds were dissolved at 10 mM in DMSO. Dilution in vehicle to concentrations of 30, 10, 3, 1 and 0.3 μM were prepared immediately before assays. Depending on the cell line's growth characteristics, 4000-10000 cells were plated in two 96-wells pates (day 0) and incubated for 16 hours. The following day, propidium iodide was added to one of the two plates and fluorescence measured (Tz). Test compounds were added to the second plate, as well as vehicle control, and cells further incubated for 96 hours. Each compound was tested at each concentration and in triplicates. The equivalent cell number was determined after adding propidium iodide by measuring the signal by fluorescence (C for control).

[2] = tested on: MDA-MB-231 (mammary gland adenocarcinoma); test: as above; conditions: read-out: MDA-MB-231 (GI50 μM)
Description: as §1

[3] = tested on: PC-3 (prostate adenocarcinoma); test: as above; conditions: read-out: PC-3 (GI50 μM)
Description: as §1

SF268 (CNS) [4] = test: as above; conditions: read-out: SF-268 (GI50 μM)
Description: as §1

[5] = tested on: HT-29, SF-268, PC-3, MDA-MB-231; test: Average GI50 over the four cell lines, method (a); conditions: for GI50: read-out: Average (GI50 μM); for anticancer activity compared with Compound 1: four cell lines
Description: as §1

[6] = tested on: HT-29 (colorectal carcinoma); test: In vitro cytotoxic activity (GI50), method (b), propidium iodide; conditions: Homo sapiens, 96 hrs
Description: (§2) Row H was filled wih medium only (150 μL, negative control-medium).

[7] = tested on: MDA-MB-231 (mammary gland adenocarcinoma); test: as above; conditions: Homo sapiens, 96 hrs
Description: as §2

[8] = tested on: PC-3 (prostate adenocarcinoma); test: as above; conditions: 96 hrs
Description: as §2

SF268 (CNS) [9] = test: as above; conditions: Homo sapiens, SF-268, 96 hrs
Description: as §2

[10] = tested on: HT-29, SF-268, PC-3, MDA-MB-231; test: Average GI50 over the four cell lines, method (b); conditions: for anticancer activity compared with Compound 1: four cell lines; for GI50: values > 30 not considered
Description: as §2

[11] = Homo sapiens, HT-29, method (a), 96 hours
[12] = Homo sapiens, MDA-MB-231, method (a), 96 hours
[13] = Homo sapiens, SF-268, method (a), 96 hours
[14] = method (a), values > 30 not considered

CC(C)=CCC/C(C)=C/CC/C(C)=C/CN1C(=O)c2cccc(O)c2N(Cc2ccccc2)c2c(O)cc(O)cc21 [Compound 3, 5-benzyl-10-farnesyl-4,6,8-trihydroxy-5,10-dihydro-dibenzo[b,e][1,4]diazepin-11-one]
GI50 [1, 11]: 7.3 µM
GI50 [2, 12]: 6.32 µM
GI50 ([3]; method (a), 96 hours): 5.36 µM
GI50 (SF268 (CNS) [4]; [13]): 5.73 µM
GI50 [5, 14]: 6.18 µM

COc1cccc2c1Nc1c(O)cc(O)cc1N(C/C=C(\C)CC/C=C(\C)CCC=C(C)C)C2=O [Compound 4, 10-farnesyl-6,8-dihydroxy-4-methoxy-5,10-dihydro-dibenzo[b,e][1,4]diazepin-11-one]
GI50 [1, 11]: 14.7 µM
GI50 [2, 12]: 11.3 µM
GI50 ([3]; method (a), 96 hours): 5.86 µM
GI50 (SF268 (CNS) [4]; [13]): 4.97 µM
GI50 [5, 14]: 9.2 µM

COc1cc(O)cc2c1Nc1c(O)cccc1C(=O)N2C/C=C(\C)CC/C=C(\C)CCC=C(C)C [Compound 5, 10-farnesyl-4,8-dihydroxy-6-methoxy-5,10-dihydro-dibenzo[b,e][1,4]diazepin-11-one]
GI50 [1, 11]: 14.4 µM
GI50 [2, 12]: 20.5 µM
GI50 ([3]; method (a), 96 hours): 15.6 µM
GI50 (SF268 (CNS) [4]; [13]): 13.4 µM
GI50 [5, 14]: 16 µM

COc1cc(OC)c2c(c1)N(C/C=C(\C)CC/C=C(\C)CCC=C(C)C)C(=O)c1cccc(O)c1N2 [Compound 6, 10-farnesyl-4-hydroxy-6,8-dimethoxy-5,10-dihydro-dibenzo[b,e][1,4]diazepin-11-one]
GI50 [1, 11]: > 30 µM
GI50 [2, 12]: 24.6 µM
GI50 ([3]; method (a), 96 hours): 19 µM
GI50 (SF268 (CNS) [4]; [13]): 18.9 µM
GI50 [5, 14]: 20.8 µM

COc1cccc2c1Nc1c(OC)cc(O)cc1N(CC=C(C)CCC=C(C)CCC=C(C)C)C2=O [Compound 7, 10-farnesyl-8-hydroxy-4,6-dimethoxy-5,10-dihydro-dibenzo[b,e][1,4]diazepin-11-one]
GI50 [1, 11]: 14.1 µM
GI50 [2, 12]: 17.4 µM
GI50 ([3]; method (a), 96 hours): 14.6 µM
GI50 (SF268 (CNS) [4]; [13]): 18.5 µM
GI50 [5, 14]: 16.1 µM

CC(=O)Oc1cc(OC(C)=O)c2c(c1)N(CC=C(C)CCC=C(C)CCC=C(C)C)C(=O)c1cccc(O)c1N2 [Compound 9, 6,8-diacetoxy-10-farnesyl-4-hydroxy-5,10-dihydro-dibenzo[b,e][1,4]diazepin-11-one]
GI50 ([1]; Homo sapiens, HT-29, 96 h): 12.6 µM
GI50 ([2]; Homo sapiens, MDA-MB-231, 96 h): 2.48 µM
GI50 ([3]; 96 h): 1.44 µM
GI50 (SF268 (CNS) [4]; Homo sapiens, SF-268, 96 h): 1.88 µM
GI50 [5]: 4.6 µM

CC(=O)Oc1cccc2c1Nc1c(OC(C)=O)cc(O)cc1N(CC=C(C)CCC=C(C)CCC=C(C)C)C2=O [Compound 10, 4,6-diacetoxy-10-farnesyl-8-hydroxy-5,10-dihydro-dibenzo[b,e][1,4]diazepin-11-one]
GI50 ([1]; Homo sapiens, HT-29, 96 h): 13 µM
GI50 ([2]; Homo sapiens, MDA-MB-231, 96 h): 1.55 µM
GI50 ([3]; 96 h): 1.35 µM
GI50 (SF268 (CNS) [4]; Homo sapiens, SF-268, 96 h): 2.02 µM
GI50 [5]: 4.48 µM

CC(=O)Oc1cc(O)c2c(c1)N(CC=C(C)CCC=C(C)CCC=C(C)C)C(=O)c1cccc(OC(C)=O)c1N2 [Compound 11, 4,8-diacetoxy-10-farnesyl-6-hydroxy-5,10-dihydro-dibenzo[b,e][1,4]diazepin-11-one]
GI50 ([1]; Homo sapiens, HT-29, 96 h): 16 µM
GI50 ([2]; Homo sapiens, MDA-MB-231, 96 h): 7.72 µM
GI50 ([3]; 96 h): 5.35 µM
GI50 (SF268 (CNS) [4]; Homo sapiens, SF-268, 96 h): 5.79 µM
GI50 [5]: 8.72 µM

CC(=O)Oc1cc(OC(C)=O)c2c(c1)N(CC=C(C)CCC=C(C)CCC=C(C)C)C(=O)c1cccc(OC(C)=O)c1N2 [Compound 12, 4,6,8-triacetoxy-10-farnesyl-5,10-dihydro-dibenzo[b,e][1,4]diazepin-i 1-one]
GI50 ([1]; method (a), 96 hours): 9.33 µM
GI50 ([2]; method (a), 96 hours): 2.79 µM
GI50 ([3]; method (a), 96 hours): 1.2 µM
GI50 (SF268 (CNS) [4]; method (a), 96 hours): 1.95 µM
anticancer activity compared with Compound 1 ([5]; method (a)): generally more active than Compound 1
GI50 [5, 14]: 3.82 µM

CC(C)CCCC(C)CCCC(C)CCN1C(=O)c2cccc(O)c2Nc2c(O)cc(O)cc21 (centres unmarked) [Compound 46, 10-(3,7,11-trimethyldodecyl)-4,6,8-trihydroxy-5,10-dihydro-dibenzo[b,e][1,4]diazepin-11-one]
GI50 [1, 11]: 4.26 µM
GI50 [2, 12]: 0.59 µM
GI50 ([3]; method (a), 96 hours): 0.9 µM
GI50 (SF268 (CNS) [4]; [13]): 0.72 µM
anticancer activity compared with Compound 1 ([5]; method (a)): generally more active than Compound 1
GI50 [5, 14]: 1.62 µM

[2H]C([2H])([2H])N1c2c(O)cccc2C(=O)N(C/C=C(\C)CC/C=C(\C)CCC=C(C)C)c2cc(O)cc(O)c21 [Compound 98, 10-Farnesyl-4,6,8-trihydroxy-5-(trideuteriomethyl)-5,10-dihydro-dibenzo[b,e][1,4]diazepin-11-one]
GI50 [6]: 0.69 µM
GI50 [7]: 0.51 µM
GI50 [8]: 0.82 µM
GI50 (SF268 (CNS) [9]): 0.16 µM
anticancer activity compared with Compound 1 [10]: better anticancer activity than Compound 1
GI50 [10]: 0.54 µM

C/C(=C\CN1C(=O)c2cccc(O)c2N(C)c2c(O)cc(O)cc21)CCCC(C)CCCC(C)C (centres unmarked) [Compound 100, 10-(3,7,11-trimethyl-2-dodecenyl)-4,6,8-trihydroxy-5-methyl-5,10-dihydro-dibenzo[b,e][1,4]diazepin-11-one]
GI50 [6]: 0.69 µM
GI50 [7]: 0.37 µM
GI50 [8]: 0.65 µM
GI50 (SF268 (CNS) [9]): 0.23 µM
anticancer activity compared with Compound 1 [10]: better anticancer activity than Compound 1
GI50 [10]: 0.49 µM

CCOC(=O)CN1c2c(O)cccc2C(=O)N(C/C=C(\C)CC/C=C(\C)CCC=C(C)C)c2cc(O)cc(O)c21 [Compound 101, (10-Farnesyl-4,6,8-trihydroxy-5,10-dihydrodibenzo[b,e][1,4]diazepin-11-on-5-yl)acetic acid ethyl ester]
GI50 [6]: 18.2 µM
GI50 [7]: 3.67 µM
GI50 [8]: 8.73 µM
GI50 (SF268 (CNS) [9]): 3.27 µM
GI50 [10]: 8.47 µM

CC(C)=CCC/C(C)=C/CC/C(C)=C/CN1C(=O)c2cccc(OC(=O)c3ccccc3)c2Nc2c(OC(=O)c3ccccc3)cc(OC(=O)c3ccccc3)cc21 [Compound 105, 4,6,8-tribenzoyloxy-10-farnesyl-5,10-dihydro-dibenzo[b,e][1,4] diazepin-11-one]
GI50 [6]: > 30 µM
GI50 [7]: > 30 µM
GI50 [8]: > 30 µM
GI50 (SF268 (CNS) [9]): 28.2 µM
GI50 [10]: 28.2 µM
